{"source": "patent EP0627489B1", "about": "“Methods and compositions for the treatment of malignancies in which a protein kinase is associated” (WASHINGTON RESEARCH FOUNDATION, priority 1990, dated 1991)", "assay_type_in_all_cases": "biochemical", "key": {"[1]": {"biological_target": "T1, TCΔC11.PTPase (Homo sapiens, UniProt P17706)", "T1 construct": "a truncated PTPase in which an 11-kDa segment was deleted from the carboxyl end (TCΔC11.PTPase-transfected cells); made in house; host or cells: Sf9 (Spodoptera frugiperda) insect cells, recombinant baculovirus (pVL 941)", "T1 sequence (P17706 1-317 limits assumed)": "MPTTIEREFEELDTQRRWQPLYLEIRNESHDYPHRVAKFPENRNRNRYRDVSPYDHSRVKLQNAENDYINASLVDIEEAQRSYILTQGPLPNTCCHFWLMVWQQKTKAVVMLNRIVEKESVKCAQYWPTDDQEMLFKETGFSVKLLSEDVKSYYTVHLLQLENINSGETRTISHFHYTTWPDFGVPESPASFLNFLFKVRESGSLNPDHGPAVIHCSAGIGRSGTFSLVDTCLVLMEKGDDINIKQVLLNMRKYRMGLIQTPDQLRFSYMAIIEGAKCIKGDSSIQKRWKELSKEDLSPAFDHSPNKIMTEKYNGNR", "assay": "Effectors of PTPase activity, truncated enzyme"}, "[2]": {"biological_target": "T2, TC.PTPase (Homo sapiens, UniProt P17706)", "T2 construct": "open reading frames of the full-length 48-kDa T cell PTPase (TC.PTPase); made in house; host or cells: Sf9 (Spodoptera frugiperda) insect cells, recombinant baculovirus (pVL 941)", "T2 sequence (P17706 1-415)": "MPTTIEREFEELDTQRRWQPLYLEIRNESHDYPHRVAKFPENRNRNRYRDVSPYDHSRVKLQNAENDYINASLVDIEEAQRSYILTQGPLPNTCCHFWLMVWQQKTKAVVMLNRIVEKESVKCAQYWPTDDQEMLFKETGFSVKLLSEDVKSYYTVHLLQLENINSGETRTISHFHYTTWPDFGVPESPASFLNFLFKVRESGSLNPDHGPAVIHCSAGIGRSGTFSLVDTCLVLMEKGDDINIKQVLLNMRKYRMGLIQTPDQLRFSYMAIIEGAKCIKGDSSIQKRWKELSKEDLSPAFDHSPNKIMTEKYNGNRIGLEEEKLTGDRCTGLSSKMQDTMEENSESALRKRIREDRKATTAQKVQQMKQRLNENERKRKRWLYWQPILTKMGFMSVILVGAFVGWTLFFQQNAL", "assay": "Effectors of PTPase activity, full-length enzyme", "procedure": "(§1) Cell extracts or purified enzymes were assayed for tyrosine phosphatase using a method described by Tonks et al., in \"Purification of the Major Protein-tyrosine-phosphatases of Human Placenta,\" J. Biol. Chem. (263):6722-6730, 1988, based on measurement of the release of ^32P from labeled substrate. Since phosphorylation of reduced, carboxyamidomethylated, maleylated (RCM)-lysozyme is not stoichiometric, concentrations are expressed in terms of ^32P phosphotyrosine. Briefly, a mixture of 0.02 ml of PTPase (diluted to less than 1 unit/ml in Buffer A) and 0.02 ml of Buffer A was warmed at 30°C for 5 minutes. Buffer A is composed of 25 mM imidazole HCl […], 1 mg/ml BSA, 0.1% (v/v) β-mercaptoethanol. […] The reaction was terminated after approximately 10 minutes by addition of 0.18 ml of 20% (w/v) trichloroacetic acid and 0.02 ml of 25 mg/ml BSA, added as a carrier protein. The suspension was vortexed, allowed to stand on ice for 10 minutes, and centrifuged at 12,500 x g for 3 minutes. A 0.2-ml aliquot of the supernatant was added to 1 ml of Aquasol scintillant and counted in a Beckman LS7000 scintillation counter. […] Blank incubations were performed in which the PTPase was replaced by Buffer A, and total ^32P was determined by counting 0.02 ml of the substrate. […] One unit of PTPase activity is defined as that amount which releases 1 nmol of phosphate/min. […]"}, "[3]": {"biological_target": "T1, TCΔC11.PTPase", "assay": "Effectors of PTPase activity, truncated enzyme", "settings": "substrate RCML 5 µM", "procedure": "as §1"}, "[4]": {"settings": "effector 2 mM, substrate MBP 5 µM"}, "[5]": {"settings": "effector 0.01 µM, substrate MBP 5 µM"}, "[6]": {"settings": "effector 1 µM, substrate MBP 5 µM"}, "[7]": {"settings": "effector 10 µM, substrate MBP 5 µM"}, "[8]": {"settings": "effector 10 µM, substrate RCML 5 µM"}, "[9]": {"settings": "effector 100 µM, substrate MBP 5 µM"}}, "note": "Where “and” joins values, the source holds several entries; their conditions need not be identical. Identical values can stand only once. Like-named read-outs stand apart in the source and are kept apart here.", "data": [{"compound": "NCCCCNCCCN", "note": "[spermidine]", "values": [{"measurement": "Activity, percentage of phosphate released relative to control in which the effector was omitted", "setting": "[1]; [4]", "result": 108, "unit": "percentage"}, {"measurement": "Activity, percentage of phosphate released relative to control in which the effector was omitted", "setting": "[2]; [4]", "result": 43, "unit": "percentage"}, {"measurement": "Activity, percentage of phosphate released relative to control in which the effector was omitted", "setting": "[2]; effector 2 mM, substrate RCML 5 µM", "result": 249, "unit": "percentage"}, {"measurement": "Activity, percentage of phosphate released relative to control in which the effector was omitted", "setting": "[3]; effector 2 mM", "result": 132, "unit": "percentage"}]}, {"compound": "poly Glu:Tyr 4:1", "values": [{"measurement": "Activity, percentage of phosphate released relative to control in which the effector was omitted", "setting": "[1]; [5]", "result": 102, "unit": "percentage"}, {"measurement": "Activity, percentage of phosphate released relative to control in which the effector was omitted", "setting": "[1]; [6]", "result": 104, "unit": "percentage"}, {"measurement": "Activity, percentage of phosphate released relative to control in which the effector was omitted", "setting": "[1]; [7]", "result": 127, "unit": "percentage"}, {"measurement": "Activity, percentage of phosphate released relative to control in which the effector was omitted", "setting": "[2]; [5]", "result": 119, "unit": "percentage"}, {"measurement": "Activity, percentage of phosphate released relative to control in which the effector was omitted", "setting": "[2]; effector 0.01 µM, substrate RCML 5 µM", "result": 66, "unit": "percentage"}, {"measurement": "Activity, percentage of phosphate released relative to control in which the effector was omitted", "setting": "[2]; [6]", "result": 133, "unit": "percentage"}, {"measurement": "Activity, percentage of phosphate released relative to control in which the effector was omitted", "setting": "[2]; effector 1 µM, substrate RCML 5 µM", "result": 18, "unit": "percentage"}, {"measurement": "Activity, percentage of phosphate released relative to control in which the effector was omitted", "setting": "[2]; [7]", "result": 58, "unit": "percentage"}, {"measurement": "Activity, percentage of phosphate released relative to control in which the effector was omitted", "setting": "[2]; [8]", "result": 6, "unit": "percentage"}, {"measurement": "Activity, percentage of phosphate released relative to control in which the effector was omitted", "setting": "[3]; effector 0.01 µM", "result": 70, "unit": "percentage"}, {"measurement": "Activity, percentage of phosphate released relative to control in which the effector was omitted", "setting": "[3]; effector 1 µM", "result": 17, "unit": "percentage"}, {"measurement": "Activity, percentage of phosphate released relative to control in which the effector was omitted", "setting": "[3]; effector 10 µM", "result": 11, "unit": "percentage"}]}, {"compound": "NCCCNCCCCNCCCN", "note": "[spermine]", "values": [{"measurement": "Activity, percentage of phosphate released relative to control in which the effector was omitted", "setting": "[1]", "result": "110 percentage and 97 percentage"}, {"measurement": "Activity, percentage of phosphate released relative to control in which the effector was omitted", "setting": "[2]", "result": 62, "unit": "percentage"}, {"measurement": "activation of the full-length enzyme", "setting": "[2]", "result": "up to sevenfold"}, {"measurement": "remaining activity at 2000 µM", "setting": "[2]; 10 min, read-out: Activity, percentage of phosphate released relative to control in which the effector was omitted", "result": 727, "unit": "%"}]}, {"compound": "O=C(O)CN(CCN(CC(=O)O)CC(=O)O)CC(=O)O", "note": "[EDTA]", "values": [{"measurement": "Activity, percentage of phosphate released relative to control in which the effector was omitted", "setting": "[1]", "result": "170 percentage and 150 percentage"}, {"measurement": "Activity, percentage of phosphate released relative to control in which the effector was omitted", "setting": "[2]", "result": "124 percentage and 137 percentage"}]}, {"compound": "molybdate", "values": [{"measurement": "Activity, percentage of phosphate released relative to control in which the effector was omitted", "setting": "[1]; [7]", "result": 2, "unit": "percentage"}, {"measurement": "Activity, percentage of phosphate released relative to control in which the effector was omitted", "setting": "[2]; [7]", "result": 1, "unit": "percentage"}, {"measurement": "Activity, percentage of phosphate released relative to control in which the effector was omitted", "setting": "[2]; [8]", "result": 0, "unit": "percentage"}, {"measurement": "Activity, percentage of phosphate released relative to control in which the effector was omitted", "setting": "[3]; effector 10 µM", "result": 2, "unit": "percentage"}]}, {"compound": "vanadate", "values": [{"measurement": "Activity, percentage of phosphate released relative to control in which the effector was omitted", "setting": "[1]; [9]", "result": 1, "unit": "percentage"}, {"measurement": "Activity, percentage of phosphate released relative to control in which the effector was omitted", "setting": "[2]; [9]", "result": 0, "unit": "percentage"}, {"measurement": "Activity, percentage of phosphate released relative to control in which the effector was omitted", "setting": "[2]; effector 100 µM, substrate RCML 5 µM", "result": 0, "unit": "percentage"}, {"measurement": "Activity, percentage of phosphate released relative to control in which the effector was omitted", "setting": "[3]; effector 100 µM", "result": 2, "unit": "percentage"}]}]}
